Results as given in patent US11414401B2, “Substituted 2-anilinopyrimidine derivatives as EGFR modulators” (Beta Pharma, Inc., priority 2014, dated 2022).
Like-named read-outs stand apart in the source and are kept apart here. Each block holds one compound with its values, some of them ahead of it.

Experiments:
[1] = tested on: subcutaneously-implanted H1975 human non-small cell lung carcinoma xenographs (L858R/T790M double mutation); details: po, 25 mg/kg, 336 h
[2] = tested on: subcutaneously-implanted H1975 human non-small cell lung carcinoma xenographs (L858R/T790M double mutation); test: H1975 mouse xenograft model, tumor growth inhibition; details: for tumor growth delay: P<0.05; for % tumor growth inhibition (% TGI): 100 mg/kg oral
[3] = tested on: subcutaneously-implanted HCC827 human non-small cell lung carcinoma xenographs (delE746-A750 activating mutation); test: HCC827 mouse xenograft model, tumor growth inhibition; assay type: in vivo, female nude mice; details: 6.25 mg/kg orally once a day for 14 days (days 13-26)
From the text: Antitumor Activity of Example 1 in the HCC827 Mouse Xenograft Model.

[4] = tested on: H1975 (double mutant) cells; test: Cell proliferation assay (Alamar Blue, 72 h), H1975; assay type: cell-based; details: Homo sapiens, read-out: H1975 IC50
Protocol: (§1) Cell Culture. […] The cell monolayer was dispersed by 5 minute exposure to 0.25% Trypsin/EDTA solution (Life Technologies) and the solution was neutralized with a fresh growth medium. […] The cells maintained normal morphology and growth characteristics during the period of the study. Cell Proliferation Assay. Dispersed cells were pooled by centrifugation (200×g, 8 min.) and resuspended in a fresh medium to a concentration of 1.00 E+04 cells/ml. 200 μL of the cell suspension was added to each well (2,000 cells/well) of a black-walled 96 well plate and the cells were allowed to attach overnight under normal culture conditions. […] The final DMSO concentration in the well was 0.5% v/v. Vehicle, non-treated, and cell-free wells were also included in the assay. The cells were cultured under normal conditions for 72 hours with daily visual inspection. Cell proliferation was measured using the dye Alamar Blue (resazurin). Resazurin is reduced by cellular enzymes to resorufin, which is fluorescent (544 nm excitation, 612 nm emission). Fluorescence intensity was proportional to cell number. A resazurin stock solution was prepared in a phosphate-buffered saline (PBS) to a stock concentration of 440 μM. The resazurin stock solution (40 μL each) was added to each well at hour 67 of the 72 hour incubation period. The plate was returned to normal culture conditions and fluorescence measurements were collected using a Cytation 3 multimode plate reader (Biotek) at 72 hours. Data Analysis. Fluorescence measurements were normalized against cell-free (background) readings and the total growth over 72 hour time period was determined versus the average of the vehicle control wells. Average and standard deviation values were determined for each condition (n=3).

A431 (wild type) cells = test: Cell proliferation assay (Alamar Blue, 72 h), A431; assay type: cell-based; details: Homo sapiens, read-out: A431 IC50
Protocol: as §1

[5] = 6.25 mg/kg orally once a day for 14 days (days 6-19)
[6] = 12.5 mg/kg orally once a day for 14 days (days 6-19)
[7] = 25 mg/kg orally once a day for 14 days (days 6-19)
[8] = all doses (6.25, 12.5 and 25 mg/kg) orally once a day for 14 days
[9] = NCI-H1975, H1975 (double mutant) cells, 72 h proliferation
[10] = A-431, A431 (wild type) cells, 72 h proliferation
[11] = 100 mg/kg orally once a day for 14 days (days 7-20)

Structure (SMILES): C=CC(=O)Nc1cc(Nc2nccc(-c3cn(C)c4ccccc34)n2)c(OC)cc1OCCN(C)C [Example 1, N-(2-(2-(Dimethylamino)ethoxy)-4-methoxy-5-((4-(1-methyl-1H-indol-3-yl)pyrimidin-2-yl)amino)phenyl)acrylamide]
tumor free survivors [1]: 10% | median time to evaluation size [2, 5]: 28.9 days | tumor growth delay [2, 5]: 14 days | median time to evaluation size [2, 6]: 31.6 days | tumor growth delay [2, 6]: 16.7 days | incidence of complete regressions [2, 7]: 100% | median time to evaluation size [2, 7]: 34.3 days | tumor growth delay [2, 7]: 19.3 days | tolerability [2, 8]: well tolerated | treatment-related mortality [2, 8]: no treatment-related mortality | incidence of complete tumor regression at the completion of dosing [3]: 100% | median time to evaluation size [3]: 61.5 days | tolerability [3]: well tolerated | treatment-related mortality [3]: no treatment-related mortality | tumor growth delay ([3]; P<0.05): 33.2 days | IC50 [4, 9]: < 100 nM | IC50 (A431 (wild type) cells; [10]): > 1000 nM

Structure (SMILES): C=CC(=O)Nc1cc(Nc2nccc(-c3cn(C)c4ccccc34)n2)c(OC)cc1SCCN(C)C [Example 2, N-(2-((2-(Dimethylamino)ethyl)thio)-4-methoxy-5-((4-(1-methyl-1H-indol-3-yl)pyrimidin-2-yl)amino)phenyl)acrylamide]
% tumor growth inhibition (% TGI) ([2]; from median tumor burdens on day 10): 110.5% | % tumor growth inhibition (% TGI) ([2]; from median tumor burdens on day 14): 116.6% | % tumor growth inhibition (% TGI) ([2]; from median tumor burdens on day 17): 116.6% | incidence of complete tumor regression [2, 11]: 100% | mice remaining tumor free (TFS) at the completion of the study [2, 11]: 12.5% | time to evaluation size (750 mm^3) [2, 11]: 39.6 days | tolerability [2, 11]: well tolerated | tumor growth delay (T-C) [2, 11]: 22.2 days | IC50 [4, 9]: < 100 nM | IC50 (A431 (wild type) cells; [10]): > 1000 nM

Structure (SMILES): C=CC(=O)Nc1cc(Nc2nccc(-c3cn(C)c4ccccc34)n2)c(OC)cc1OC [Example 3, N-(2,4-Dimethoxy-5-((4-(1-methyl-1H-indol-yl)pyrimidin-2-yl)amino)-phenyl)acrylamide]
IC50 [4, 9]: 100 to 1000 nM | IC50 (A431 (wild type) cells; [10]): > 1000 nM

Structure (SMILES): C=CC(=O)Nc1cc(Nc2nccc(-c3cn(C)c4ccccc34)n2)c(OC)cc1CCCN(C)C [Example 4, N-(2-(3-(Dimethylamino)propyl)-4-methoxy-5-((4-(1-methyl-1H-indol-3-yl)pyrimidin-2-yl)amino)phenyl)acrylamide]
IC50 [4, 9]: < 100 nM | IC50 (A431 (wild type) cells; [10]): > 1000 nM

Structure (SMILES): C=CC(=O)Nc1cc(Nc2nccc(-c3c4ccccc4nn3C)n2)c(OC)cc1OCCN(C)C [Example 5, N-(2-(2-(Dimethylamino)ethoxy)-4-methoxy-5-((4-(2-methyl-2H-indazol-3-yl)pyrimidin-2-yl)amino)phenyl)acrylamide]
IC50 [4, 9]: 100 to 1000 nM | IC50 (A431 (wild type) cells; [10]): 100 to 1000 nM

Structure (SMILES): C=CC(=O)Nc1cc(Nc2nccc(-c3cn(CCF)c4ccccc34)n2)c(OC)cc1OCCN(C)C [Example 11, N-(2-(2-(Dimethylamino)ethoxy)-5-((4-(1-(2-fluoroethyl)-1H-indolyl-3-yl)pyrimidin-2-yl)amino)-4-methoxyphenyl)acrylamide]
IC50 ([4]; NCI-H1975, 72 h): < 100 nM | IC50 (A431 (wild type) cells; A-431, 72 h): 100 to 1000 nM

Further lines, results first:

IC50 [4, 9]: < 100 nM | IC50 (A431 (wild type) cells; [10]): 100 to 1000 nM
Structure (SMILES): C=CC(=O)Nc1cc(Nc2nccc(-c3c(C)n(C)c4ccccc34)n2)c(OC)cc1OCCN(C)C [Example 8, N-(5-((4-(1,2-Dimethyl-1H-indol-3-yl)pyrimidin-2-yl)amino)-2-(2-(dimethylamino)ethoxy)-4-methoxyphenyl)acrylamide]

IC50 [4, 9]: < 100 nM | IC50 (A431 (wild type) cells; [10]): > 1000 nM
Structure (SMILES): C=CC(=O)Nc1cc(Nc2nccc(-c3cnn4ccccc34)n2)c(OC)cc1OCCN(C)C [Example 9, N-(2-(2-(Dimethylamino)ethoxy)-4-methoxy-5-((4-(pyrazolo[1,5-a]pyridin-3-yl)pyrimidin-2-yl)amino)phenyl)acrylamide]

IC50 [4, 9]: < 100 nM | IC50 (A431 (wild type) cells; [10]): 100 to 1000 nM
Structure (SMILES): C=CC(=O)Nc1cc(Nc2nccc(-c3nn(C)c4ccccc34)n2)c(OC)cc1OCCN(C)C [Example 10, N-(2-(2-(Dimethylamino)ethoxy)-4-methoxy-5-((4-(1-methyl-1H-indazol-3-yl)pyrimidin-2-yl)amino)phenyl)acrylamide]
